Experimental findings from US9567586B2, “EpCAM aptamer for detection of cancer stem cells” (DEAKIN UNIVERSITY, priority 2012, dated 2017) are described below.

Series [1] has as its target T1, EpCAM (Homo sapiens, UniProt P16422).
T1 sequence (P16422 24-314): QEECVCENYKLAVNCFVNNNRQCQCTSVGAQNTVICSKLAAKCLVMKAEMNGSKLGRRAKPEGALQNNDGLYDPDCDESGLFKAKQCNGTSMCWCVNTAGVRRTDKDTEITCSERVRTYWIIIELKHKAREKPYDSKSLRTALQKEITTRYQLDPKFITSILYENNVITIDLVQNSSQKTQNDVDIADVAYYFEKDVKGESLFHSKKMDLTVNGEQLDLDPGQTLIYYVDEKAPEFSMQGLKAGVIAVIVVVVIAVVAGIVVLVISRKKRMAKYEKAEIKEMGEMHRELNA
Nature of the series: Immunofluorescence staining of paraffin embedded xenograft tumour sections. On the set-up: from tissue; host or cells: xenograft tumours of T47D, MCF7, MDA-MB-231, HT-29 and U118MG cells grown in BALB/c-Foxn1 nu mice, formalin-fixed and paraffin-embedded; key to Quantification of anti-EpCAM staining by immunofluorescence: ‘−’ no staining; ‘+’ faint incomplete staining in >10% of cells; ‘++’ moderate complete membrance staining; ‘+++’ strong complete membrance staining. The protocol: (§1) A: Immunofluorescence staining of breast cancer (T47D, MCF7 and MDA-MB-231), colon cancer (HT-29) and glioblastoma (U118MG) xenograft tumours by EpCAM aptamers, DT3 and 23, control aptamer and the anti-EpCAM antibody, 323/A3 (Blue: nuclei; Red: EpCAM positive staining). B: Immunohistochemistry was performed with the anti-EpCAM antibody BerEP4, and all tumours were evaluated by haematoxylin and eosin staining for morphological confirmation. Aptamer staining was performed for 15 min at 37° C., while 323/A3 staining was performed at 4° C. overnight and BerEP4 was performed at room temperature for 20 min. All fluorescent images were taken at 60×, while light microscopy images were taken at 20×. Images are representative of at least three separate experiments. Scale bar: 50 μm.
(§2) The cell lines of human origin used in this study were purchased from American type Culture Collection. They were glioblastoma U118-MG; breast carcinoma MCF-7, MDA-MB-231 and T47D; and colorectal adenocarcinoma HT-29. Cells were grown and maintained in culture with Dulbecco's Modified Eagle medium (DMEM) (Invitrogen, Victoria, Australia) supplemented with 10% fetal calf serum (MCF-7, T47D, HT-29, and U118-MG), or Roswell Park Memorial Institute 1640 (RPMI 1640) (Invitrogen) with 10% fetal calf serum (MDA-MB-231). Cells were maintained at 37 ^CC in a humidified atmosphere containing 5% CO2. For xenograft studies, single cell suspensions were harvested by trypsinisation, washed with PBS and resuspended in 0.1 mL of PBS for implantation in BALB/c-Foxn1 ^nu female mice. Once tumours had reached approximately […], they were excised and fixed in 10% neutral buffered formalin prior to processing and embedding. All animal procedures were approved by Deakin University Animal Welfare Committee, and in accordance with the Australian Code of Practice for the Care and Use of Animals for Scientific Purposes.
(§3) Sections from each of the xenograft tumours were cut at 4 μm onto polylysine coated slides prior to deparaffinisation with Histoclear and rehydration through graded ethanol. Heat induced antigen retrieval was performed in a microwave oven using Tris-EDTA buffer (10 mM Tris, 1 mM EDTA, 0.05% Tween 20, pH 9.0) for 20 min and the slides were allowed to cool prior to blocking with 0.1 mg/mL tRNA, 0.1 mg/mL salmon sperm DNA and 1 mg/mL bovine serum albumin (BSA) in phosphate buffered saline (PBS) for 20 min. Following the blocking step, slides were washed in PBS containing 0.1% Tween 20 twice for 2 min prior to incubation with either aptamer or antibody. Aptamers were prepared as previously described (Shigdar S et al, supra). Briefly, aptamers were heated to 85° C. for 5 min, allowed to cool to room temperature for 10 min and then heated at 37° C. for 15 min. Slides were incubated with aptamers at 100 nM concentration in a solution of PBS containing 5 mM MgCl2, 0.1 mg/mL tRNA, 1 mg/mL BSA, 10% dextran sulphate and 500 μg/mL heparin for 15 min at 37° C. The slides were then washed three times for 5 min each prior to incubation with Bisbenzimide Hoechst 33342 (3 μg/mL) for 10 min. Slides were then mounted using VECTASHIELD and coverslipped prior to visualisation using a Fluoview FV10i laser scanning confocal microscope. All images used for direct comparison were taken with identical exposure parameters and are presented without any digital contrast alteration or background subtraction. Antibody staining was performed using the anti-EpCAM antibody 323/A3 (ab8601, Abcam). Slides were washed and blocked following the same protocol as previously described prior to antibody staining. The antibody was prepared at a concentration of 10 μg/mL and the slides were incubated overnight at 4° C. Slides were then washed three times for 5 min followed by incubation with a goat-anti-mouse IgG AlexaFluor 647 conjugate (Invitrogen) at a concentration of 10 μg/mL for 2 h prior to washing, staining with Bisbenzimide Hoechst 33342, and coverslipping. […]

The test system of series [2] is EpCAM. Described as above. Particulars: for Quantification of anti-EpCAM staining by immunofluorescence: U118MG xenograft. On the set-up: species or system human; key to Quantification of anti-EpCAM staining by immunofluorescence: ‘−’ no staining; ‘+’ faint incomplete staining in >10% of cells; ‘++’ moderate complete membrance staining; ‘+++’ strong complete membrance staining. The protocol: as §1, §2
as §3, with “Abcam).” for “Abcam). Slides were washed and blocked following the same protocol as previously described prior to antibody staining. The antibody was prepared at a concentration of 10 μg/mL and the slides were incubated overnight at 4° C. Slides were then washed three times for 5 min followed by incubation with a goat-anti-mouse IgG AlexaFluor 647 conjugate (Invitrogen) at a concentration of 10 μg/mL for 2 h prior to washing, staining with Bisbenzimide Hoechst 33342, and coverslipping.”

For series [3], the system named is HEK293T sphere that does not express EpCAM. Nature of the series: Penetration of HEK293T sphere (specificity). In kind it is cell-based, human. The settings on record: 4 h incubation, further 24 h culture. On the procedure: After four hour incubation with EpCAM antibody or aptamer 23 separately, the tumor spheres were washed twice with PBS and were cultured for a further 24 h followed by confocal microscopy. Panel A: fluorescence image for aptamer 23. Panel B: phase contrast for tumor sphere. Panel C: fluorescence image for anti-EpCAM antibody. Panel D: phase contrast image for tumour sphere.
To study the ability of EpCAM aptamer or antibody to penetrate tumors, the inventors used a three-dimensional in vitro tumor sphere model. […] After incubating for the indicated time, the spheres were washed twice with PBS and imaged via fluorescence confocal microscopy. A phase contrast image of the sphere was also taken for each sample. […] A retention study was performed whereby the tumour spheres were incubated with EpCAM antibody, aptamer-23 or control aptamer for 4 h, after washing with PBS twice, the tumor spheres were incubated with the culture medium for a further 24 h followed by confocal microscopy.

Consider “5′-ACGUAUCCCUUUUCGCGUA-3′ (RNA aptamer, fluorescent dye conjugate used, modifications not given here, further chemistry not given here) [compound 23]”, for which, in the series with EpCAM [1] (HT-29 colorectal cancer xenograft), the “staining of HT-29 xenograft sections (in words)” value is “strong positive staining”. Further, the “Quantification of anti-EpCAM staining by immunofluorescence” value is reported as “+++” with EpCAM [1] (HT-29 xenograft); “++” with EpCAM [1] (MCF7 xenograft); “+ (‘+’ faint incomplete staining in >10% of cells)” in the series with EpCAM [1] (MDA-MB-231 xenograft); “+++” in the series with EpCAM [1] (T47D xenograft); “−” in the series with EpCAM [2]. Also, the “detection of EpCAM in MDA-MB-231 xenograft tumour (in words)” value with EpCAM [1] (MDA-MB-231 xenograft, low EpCAM expression) was “successfully detect EpCAM”. Moreover, in the series with EpCAM [1] (T47D, MCF7 and MDA-MB-231 xenografts, 100 nM, 15 min, 37° C., dextran sulphate and heparin), the “staining of human breast cancer xenografts (in words)” value is on record as “highly sensitive staining”. Also, the “staining of U118MG xenograft (in words)” value with EpCAM [2] (U118MG xenograft that does not express EpCAM) was “no staining detectable”. The “binding to HEK293T sphere” value in series [3] was “minimal binding”.
With “5′-DY647-mGCmGACUmGmGUUmACCCmGmGUCmGdT-3′ (GCGACUGGUUACCCGGUCGN; 5' DY647, 2'-O-methyl, 3' dT, further chemistry not given here) [Control]”, the “Quantification of anti-EpCAM staining by immunofluorescence” value with EpCAM [1] (HT-29 xenograft), with EpCAM [1] (MCF7 xenograft), with EpCAM [1] (MDA-MB-231 xenograft), with EpCAM [1] (T47D xenograft) and in the series with EpCAM [2] was “−” in each case.
